Source: paper PMC9693455, “Synthesis of Tetrasubstituted Phosphorus Analogs of Aspartic Acid as Antiproliferative Agents” (Molecules, 2022)

Experiments:
[1] = system: A549 (carcinomic human alveolar basal epithelial) cells; experiment: In vitro cytotoxicity (antiproliferative activity), CCK-8 assay, A549; assay type: cell-based; details: Homo sapiens, A549, 48 h, 48 h exposure, CCK-8
Method: (§1) In vitro cytotoxicity of the phosphorated aspartic acid derivatives was evaluated by testing their antiproliferative activities against several human cancer cell lines. Cell counting kit (CCK-8) assay was used for the evaluation of growth inhibition. […] In addition, trisubstituted aminophosphonate 9a (Imine precursor, R^1 = H, R^2 = P(O)(OMe)2) and tetrasubstituted aminophosphonate 18 (R^1 = Me, R^2 = P(O)(OMe)2) are used as templates in order to evaluate the effect of the substituents (Table 1).
(§2) Human epithelial lung carcinoma cells (A549) (ATCC® CCL-185™, ATCC, Manassas, VA, USA) were grown in Kaighn’s Modification of Ham’s F-12 Medium (ATCC® 30-2004™, ATCC, Manassas, VA, USA) and lung fibroblast cells (MRC5) (ATCC® CCL-171™, ATCC, Manassas, VA, USA) were grown in Eagle’s Minimum Essential Medium (EMEM, ATCC® 30-2003™, ATCC, Manassas, VA, USA). Epithelial ovary adenocarcinoma cells (SKOV3) (ATCC® HTB-77™, ATCC, Manassas, VA, USA) were grown in McCoy’s 5A medium (ATCC® 30-2007™, ATCC, Manassas, VA, USA). All of them were supplemented with 10% of fetal bovine serum (FBS) (Sigma-Aldrich, Madrid, Spain) and with 1% of NORMOCIN solution (Thermo Fisher, Waltham, MA, USA). Cells were incubated at 37 °C and 5% CO2 atmosphere, and were split every 3–4 days to maintain monolayer coverage. For the cytotoxicity experiments, the A549 and SKOV3 cells were seeded in 96-well plates at a density of 2.5–3 × 10^3 cells per well and incubated overnight to achieve 70% of confluence at the time of exposition to the cytotoxic compound.
(§3) Cells were exposed to different concentrations of the cytotoxic compounds and were incubated for 48 h. Then, 10 µL of cell counting kit-8 was added into each well for an additional two hours’ incubation at 37 °C. The absorbance of each well was determined by an Automatic Elisa Reader System (Thermo Scientific Multiskan FC Automatic Elisa Reader System, Thermo Scientific, Shanghai, China) at 450 nm wavelength.

[2] = system: SKOV3 (human ovarian carcinoma) cells; experiment: In vitro cytotoxicity (antiproliferative activity), CCK-8 assay, SKOV3; assay type: cell-based; details: Homo sapiens, SK-OV-3, 48 h exposure, CCK-8
Method: as §1, §2, §3

[3] = system: MRC5 lung fibroblast cells; experiment: Selective toxicity, CCK-8 assay, non-malignant MRC5 lung fibroblasts; assay type: cell-based; details: for IC50: Homo sapiens, non-malignant MRC5 lung fibroblasts, 48 h exposure, CCK-8
Method: as §1, §2, §3

| SMILES | melting point | IC50 [1] | IC50 [2] | IC50 [3] | toxicity toward MRC5 non-malignant cells (in words) ([3]; MRC5 cells) |
| --- | --- | --- | --- | --- | --- |
| CCOC(=O)CC(NS(=O)(=O)c1ccc(C)cc1)(c1ccc(F)cc1F)P(=O)(OC)OC (centres unmarked) [7m, Ethyl 3-(2,4-difluorophenyl)-3-(dimethoxyphosphoryl)-3-((4-methylphenyl)sulfonamido)propanoate] | 135 to 136 °C | 2.24 ± 0.31 µM | > 50 µM | > 50 µM |  |
| CCOC(=O)CC(NS(=O)(=O)c1ccc(C)cc1)(c1ccc(F)c(F)c1)P(=O)(OC)OC (centres unmarked) [7n, Ethyl 3-(3,4-difluorophenyl)-3-(dimethoxyphosphoryl)-3-((4-methylphenyl)sulfonamido)propanoate] | 98 to 99 °C | 5.7 ± 0.7 µM | > 50 µM | > 50 µM |  |
| CCOC(=O)CC(NS(=O)(=O)c1ccc(C)cc1)(c1ccc(C(F)(F)F)cc1)P(=O)(OC)OC (centres unmarked) [7p, Ethyl 3-(dimethoxyphosphoryl)-3-((4-methylphenyl)sulfonamido)-3-(4-(trifluoromethyl)phenyl)propanoate] | 114 to 115 °C | 20.3 ± 1.14 µM | 9.8 ± 0.6 µM | > 50 µM | no toxicity |
| CCOC(=O)CC(NS(=O)(=O)c1ccc(C)cc1)(c1ccc([N+](=O)[O-])cc1)P(=O)(OC)OC (centres unmarked) [7q, Ethyl 3-(dimethoxyphosphoryl)-3-((4-methylphenyl)sulfonamido)-3-(4-nitrophenyl)propanoate] | 129 to 130 °C | 0.67 ± 0.06 µM | > 50 µM | > 50 µM |  |
| CCOC(=O)CC(NS(=O)(=O)c1ccc(C)cc1)(c1ccc(Cl)s1)P(=O)(OC)OC (centres unmarked) [7r, Ethyl 3-(5-chlorothiophen-2-yl)-3-(dimethoxyphosphoryl)-3-((4-methylphenyl)sulfonamido)propanoate] | 93 to 94 °C | 1.04 ± 0.28 µM | 11.8 ± 0.6 µM | > 50 µM |  |
| CCOC(=O)CC(NS(=O)(=O)c1ccc(C)cc1)(c1ccc(-c2ccccc2)cc1)P(=O)(OC)OC (centres unmarked) [7s, Ethyl 3-([1,1’-biphenyl]-4-yl)-3-(dimethoxyphosphoryl)-3-((4-methylphenyl)sulfonamido)propanoate] | 112 to 113 °C | 1.48 ± 0.4 µM | 17 ± 1.22 µM | > 50 µM |  |
| COP(=O)(OC)C(CC(=O)OCc1ccccc1)(NS(=O)(=O)c1ccc(C)cc1)c1ccccc1 (centres unmarked) [13b, Benzyl 3-(dimethoxyphosphoryl)-3-((4-methylphenyl)sulfonamido)-3-phenylpropanoate] | 84 to 85 °C | 5.2 ± 0.16 µM | > 50 µM | > 50 µM |  |
